Laboratory results taken from US20240294541A1, “COMPOUNDS CONSTITUTING C20-MODIFIED SALINOMYCIN DERIVATIVES, A METHOD FOR OBTAINING THE SAME, A COMPOSITION CONTAINING THE SAME AND A USE OF SAID COMPOUNDS” (FILECLO SPOLKA Z OGRANICZONA ODPOWIEDZIALNOSCIA, priority 2021, published 2024).

How the values were obtained:
Format in all cases: cell-based
[1] = tested on: SNU-16 (human gastric cancer); test: cells; settings: for IC50: Homo sapiens, SNU-16, 72 h with compound, MTT, n/a = non-active compound, read-out: SNU-16 IC50; for SNU-16 SI: selectivity coefficient vs normal BALB/3T3 cells
[2] = tested on: BALB/3T3 (normal mouse fibroblasts); test: In vitro cytotoxicity, SRB assay, normal BALB/3T3 fibroblasts; settings: Mus musculus, BALB/3T3; normal cells; 72 h with compound, SRB; n/a = non-active compound; read-out: BALB/3T3 IC50
[3] = tested on: MIA PaCa-2 (human pancreatic cancer); test: cells; settings: for IC50: Homo sapiens, MIA PaCa-2, 72 h with compound, SRB, n/a = non-active compound, read-out: MIA PaCa-2 IC50; for MIA PaCa-2 SI: selectivity coefficient vs normal BALB/3T3 cells
[4] = tested on: NCI-H23 (human lung cancer); test: In vitro cytotoxicity, SRB assay, NCI-H23; settings: for IC50: Homo sapiens, NCI-H23, 72 h with compound, SRB, n/a = non-active compound, read-out: NCI-H23 IC50; for NCI-H23 SI: selectivity coefficient vs normal BALB/3T3 cells
[5] = tested on: A2780Cis (cisplatin-resistant human ovarian cancer); test: In vitro cytotoxicity, SRB assay, A2780Cis; settings: for IC50: Homo sapiens, A2780cis, 72 h, read-out: A2780Cis IC50 (nM)
[6] = tested on: A2780 (human ovarian cancer); test: In vitro cytotoxicity, SRB assay, A2780; settings: for IC50: Homo sapiens, A2780, 72 h with compound, SRB, n/a = non-active compound, read-out: A2780 IC50; for A2780 SI: selectivity coefficient vs normal BALB/3T3 cells
Hs294T (human melanoma) = test: cells; settings: for IC50: Homo sapiens, Hs 294T, 72 h with compound, SRB, n/a = non-active compound, read-out: Hs294T IC50; for Hs294T SI: selectivity coefficient vs normal BALB/3T3 cells
[7] = tested on: PLC/PRF/5 (human liver cancer); test: cells; settings: for IC50: Homo sapiens, PLC-PRF-5, 72 h with compound, SRB, n/a = non-active compound, read-out: PLC/PRF/5 IC50; for PLC/PRF/5 SI: selectivity coefficient vs normal BALB/3T3 cells
[8] = tested on: PFSK-1 (malignant primitive neuroectodermal tumour); test: In vitro cytotoxicity, SRB assay, PFSK-1; settings: for IC50: Homo sapiens, PFSK-1, 72 h with compound, SRB, n/a = non-active compound, read-out: PFSK-1 IC50; for PFSK-1 SI: selectivity coefficient vs normal BALB/3T3 cells
A375 (human melanoma) = test: In vitro cytotoxicity, SRB assay, A375; settings: for IC50: Homo sapiens, A-375, 72 h with compound, SRB, n/a = non-active compound, read-out: A375 IC50; for A375 SI: selectivity coefficient vs normal BALB/3T3 cells
[9] = tested on: KG-1 (human acute myeloid leukaemia); test: In vitro cytotoxicity, MTT assay, KG-1; settings: for IC50: Homo sapiens, 72 h with compound, MTT, n/a = non-active compound; for KG-1 SI: selectivity coefficient vs normal BALB/3T3 cells

SMILES	IC50 [1] [nM]	SNU-16 SI [1]	IC50 [2] [nM]	IC50 [3] [nM]	MIA PaCa-2 SI [3]	IC50 [4] [nM]	NCI-H23 SI [4]	A2780Cis RI [5]	A2780Cis SI [5]	IC50 [5] [nM]	IC50 [6] [nM]	A2780 SI [6]	IC50 [7] [nM]	PLC/PRF/5 SI [7]	IC50 [8] [nM]	PFSK-1 SI [8]	IC50 (A375 (human melanoma)) [nM]	A375 SI (A375 (human melanoma))	IC50 [9] [nM]	KG-1 SI [9]	other results
CCCCNC(=S)N[C@@H]1C=C[C@]2(O[C@H]([C@@H](CC)C(=O)[C@@H](C)[C@@H](O)[C@H](C)[C@@H]3O[C@@H]([C@@H](CC)C(=O)O)CC[C@@H]3C)[C@@H](C)C[C@H]2C)O[C@@]12CC[C@@](C)([C@H]1CC[C@](O)(CC)[C@H](C)O1)O2 [FLC-00368-1]	16	8.2	131	88.1	1.5	18.4	7.1	0.8	44.2	2.97	3.54	37.1	74.2	1.8	18.6	7.0	89.1	1.5	28.2	4.7	IC50 (Hs294T (human melanoma)): 152 nM; Hs294T SI (Hs294T (human melanoma)): 0.9
CCCNC(=S)N[C@@H]1C=C[C@]2(O[C@H]([C@@H](CC)C(=O)[C@@H](C)[C@@H](O)[C@H](C)[C@@H]3O[C@@H]([C@@H](CC)C(=O)O)CC[C@@H]3C)[C@@H](C)C[C@H]2C)O[C@@]12CC[C@@](C)([C@H]1CC[C@](O)(CC)[C@H](C)O1)O2 [FLC-00349-1]	20.7	3.3	67.5	66.3	1.0	75.2	0.9	1.0	14.8	4.56	4.5	15.0	24.1	2.8	27.6	2.4	113	0.6	24.7	2.7	IC50 (Hs294T (human melanoma)): 108 nM; Hs294T SI (Hs294T (human melanoma)): 0.6
CC[C@@H](C(=O)[C@@H](C)[C@@H](O)[C@H](C)[C@@H]1O[C@@H]([C@@H](CC)C(=O)O)CC[C@@H]1C)[C@H]1O[C@]2(C=C[C@@H](NC(=S)Nc3ccc(C)cc3)[C@]3(CC[C@@](C)([C@H]4CC[C@](O)(CC)[C@H](C)O4)O3)O2)[C@H](C)C[C@@H]1C [FLC-00382-1]	5.15	10.0	51.6	36.5	1.4	3.92	13.2	0.4	157.5	0.33	0.84	61.4	5.15	10.0	3.75	13.8	44.2	1.2	9.84	5.2	IC50 (Hs294T (human melanoma)): 61.1 nM; Hs294T SI (Hs294T (human melanoma)): 0.8
CC[C@@H](C(=O)[C@@H](C)[C@@H](O)[C@H](C)[C@@H]1O[C@@H]([C@@H](CC)C(=O)O)CC[C@@H]1C)[C@H]1O[C@]2(C=C[C@@H](NC(=O)Nc3ccccc3C(F)(F)F)[C@]3(CC[C@@](C)([C@H]4CC[C@](O)(CC)[C@H](C)O4)O3)O2)[C@H](C)C[C@@H]1C [FLC-00381-1]	63.8	2.5	159	69.6	2.3	46.3	3.4	0.5	21.7	7.34	13.4	11.9	62.4	2.5	50.4	3.2	189	0.8	36.4	4.4	IC50 (Hs294T (human melanoma)): 138 nM; Hs294T SI (Hs294T (human melanoma)): 1.2
CC[C@@H](C(=O)[C@@H](C)[C@@H](O)[C@H](C)[C@@H]1O[C@@H]([C@@H](CC)C(=O)O)CC[C@@H]1C)[C@H]1O[C@]2(C=C[C@@H](NC(=S)NC3CCCCC3)[C@]3(CC[C@@](C)([C@H]4CC[C@](O)(CC)[C@H](C)O4)O3)O2)[C@H](C)C[C@@H]1C [FLC-00377-1]	51.8	1.4	73.3	41.6	1.8	5.7	12.9	0.4	47.2	1.56	3.55	20.6	18.8	3.9	7.82	9.4	65.5	1.1	18.3	4.0	IC50 (Hs294T (human melanoma)): 94.8 nM; Hs294T SI (Hs294T (human melanoma)): 0.8
CC[C@@H](C(=O)[C@@H](C)[C@@H](O)[C@H](C)[C@@H]1O[C@@H]([C@@H](CC)C(=O)O)CC[C@@H]1C)[C@H]1O[C@]2(C=C[C@@H](NC(=S)Nc3cc(C(F)(F)F)cc(C(F)(F)F)c3)[C@]3(CC[C@@](C)([C@H]4CC[C@](O)(CC)[C@H](C)O4)O3)O2)[C@H](C)C[C@@H]1C [FLC-00348-1]	537	5.3	2830	2320	1.2	972	2.9	0.8	60.6	46.6	57	49.6	1150	2.5	379	7.4	2590	1.1	188	15.0	IC50 (Hs294T (human melanoma)): 3320 nM; Hs294T SI (Hs294T (human melanoma)): 0.9
CCNC(=S)N[C@@H]1C=C[C@]2(O[C@H]([C@@H](CC)C(=O)[C@@H](C)[C@@H](O)[C@H](C)[C@@H]3O[C@@H]([C@@H](CC)C(=O)O)CC[C@@H]3C)[C@@H](C)C[C@H]2C)O[C@@]12CC[C@@](C)([C@H]1CC[C@](O)(CC)[C@H](C)O1)O2 [FLC-00339-1 Na]	17.5	3.1	54.5	17.1	3.2	4.38	12.4	0.9	26.7	2.04	2.27	24.0	10.8	5.0	16.1	3.4	26.9	2.0	11.1	4.9	–
CC[C@@H](C(=O)[C@@H](C)[C@@H](O)[C@H](C)[C@@H]1O[C@@H]([C@@H](CC)C(=O)O)CC[C@@H]1C)[C@H]1O[C@]2(C=C[C@@H](NC(=O)NC(=O)C(Cl)(Cl)Cl)[C@]3(CC[C@@](C)([C@H]4CC[C@](O)(CC)[C@H](C)O4)O3)O2)[C@H](C)C[C@@H]1C [FLC-00367-1]	368	13.8	5080	3220	1.6	682	7.4	0.8	19.1	266	322	15.7	940	5.4	689	7.4	5920	0.9	666	7.6	–
CC[C@@H](C(=O)[C@@H](C)[C@@H](O)[C@H](C)[C@@H]1O[C@@H]([C@@H](CC)C(=O)O)CC[C@@H]1C)[C@H]1O[C@]2(C=C[C@@H](NC(=S)Nc3ccc(F)cc3)[C@]3(CC[C@@](C)([C@H]4CC[C@](O)(CC)[C@H](C)O4)O3)O2)[C@H](C)C[C@@H]1C [FLC-00340-1 Na]	16.7	3.5	57.7	33.9	1.7	8.64	6.7	0.8	31.4	1.84	2.41	24.0	19.1	3.0	9.37	6.2	31.2	1.8	24.4	2.4	–
